Laboratory results taken from PubChem BioAssay AID1259407 (Chemical Carcinogenesis Research Information System (CCRIS), 2018).
Activity calls are given as the source filed them. How the calls were made is not given here.

System: CCRIS mutagenicity, Ames/micronucleus/aberration tests
Assay: CCRIS mutagenicity studies

Nc1ccc2cc3ccccc3cc2c1
mutagenic call (Test System: AMES SALMONELLA TYPHIMURIUM, Strain/Indicator: NM2000, Metabolic Activation: RAT, LIVER, S-9, AROCLOR 1254, Method: PREINCUBATION): active; positive | mutagenic call (Test System: AMES SALMONELLA TYPHIMURIUM, Strain/Indicator: NM2009, Metabolic Activation: RAT, LIVER, S-9, AROCLOR 1254, Method: PREINCUBATION): active; positive | mutagenic call (Test System: AMES SALMONELLA TYPHIMURIUM, Strain/Indicator: TA97, Metabolic Activation: NONE, Method: STANDARD PLATE): inactive; negative | mutagenic call (Test System: AMES SALMONELLA TYPHIMURIUM, Strain/Indicator: TA97, Metabolic Activation: RAT, LIVER, S-9, AROCLOR 1254, Method: STANDARD PLATE): active; positive | mutagenic call (Test System: AMES SALMONELLA TYPHIMURIUM, Strain/Indicator: TA97A, Metabolic Activation: RAT, LIVER, S-9, AROCLOR 1254, Method: STANDARD PLATE): active; positive | mutagenic call (Test System: AMES SALMONELLA TYPHIMURIUM, Strain/Indicator: TA98 (1,8-DNP6), Metabolic Activation: RAT LIVER, CYTOSOL, AROCLOR 1254, Method: STANDARD PLATE): active; positive | mutagenic call (Test System: AMES SALMONELLA TYPHIMURIUM, Strain/Indicator: TA98 (1,8-DNP6), Metabolic Activation: RAT LIVER, MICROSOMES, AROCLOR 1254, Method: STANDARD PLATE): active; positive | mutagenic call (Test System: AMES SALMONELLA TYPHIMURIUM, Strain/Indicator: TA98, Metabolic Activation: FERRET, LIVER, CYTOSOL, Method: STANDARD PLATE): inactive; negative | mutagenic call (Test System: AMES SALMONELLA TYPHIMURIUM, Strain/Indicator: TA98, Metabolic Activation: FERRET, LIVER, MICROSOMES, Method: STANDARD PLATE): active; positive | mutagenic call (Test System: AMES SALMONELLA TYPHIMURIUM, Strain/Indicator: TA98, Metabolic Activation: HAMSTER, LIVER, CYTOSOL, Method: STANDARD PLATE): inactive; negative | mutagenic call (Test System: AMES SALMONELLA TYPHIMURIUM, Strain/Indicator: TA98, Metabolic Activation: HAMSTER, LIVER, MICROSOMES, Method: STANDARD PLATE): active; positive | mutagenic call (Test System: AMES SALMONELLA TYPHIMURIUM, Strain/Indicator: TA98, Metabolic Activation: HUMAN, LIVER, CYTOSOL, Method: STANDARD PLATE): active; positive | mutagenic call (Test System: AMES SALMONELLA TYPHIMURIUM, Strain/Indicator: TA98, Metabolic Activation: HUMAN, RED BLOOD CELL, CYTOSOL, Method: PREINCUBATION): active; positive | mutagenic call (Test System: AMES SALMONELLA TYPHIMURIUM, Strain/Indicator: TA98, Metabolic Activation: NONE, Method: SPIRAL ASSAY): inactive; negative | mutagenic call (Test System: AMES SALMONELLA TYPHIMURIUM, Strain/Indicator: TA98, Metabolic Activation: PIG, LIVER, CYTOSOL, Method: STANDARD PLATE): inactive; negative | mutagenic call (Test System: AMES SALMONELLA TYPHIMURIUM, Strain/Indicator: TA98, Metabolic Activation: PIG, LIVER, MICROSOMES, Method: STANDARD PLATE): active; positive | mutagenic call (Test System: AMES SALMONELLA TYPHIMURIUM, Strain/Indicator: TA98, Metabolic Activation: RAT LIVER, CYTOSOL, AROCLOR 1254, Method: STANDARD PLATE): active; positive | mutagenic call (Test System: AMES SALMONELLA TYPHIMURIUM, Strain/Indicator: TA98, Metabolic Activation: RAT LIVER, MICROSOMES, AROCLOR 1254, Method: STANDARD PLATE): active; positive | mutagenic call (Test System: AMES SALMONELLA TYPHIMURIUM, Strain/Indicator: TA98, Metabolic Activation: RAT, LIVER, CYTOSOL, Method: STANDARD PLATE): inactive; negative | mutagenic call (Test System: AMES SALMONELLA TYPHIMURIUM, Strain/Indicator: TA98, Metabolic Activation: RAT, LIVER, MICROSOMES, Method: STANDARD PLATE): active; positive | mutagenic call (Test System: AMES SALMONELLA TYPHIMURIUM, Strain/Indicator: TA98, Metabolic Activation: RAT, LIVER, S-9, AROCLOR 1254 (0.5, 1, 2 OR 4%), Method: STANDARD PLATE): active; positive | mutagenic call (Test System: AMES SALMONELLA TYPHIMURIUM, Strain/Indicator: TA98, Metabolic Activation: RAT, LIVER, S-9, AROCLOR 1254, Method: SPIRAL ASSAY): active; positive | mutagenic call (Test System: AMES SALMONELLA TYPHIMURIUM, Strain/Indicator: TA98, Metabolic Activation: RAT, LIVER, S-9, AROCLOR 1254 OR PHENOBARBITOL, Method: STANDARD PLATE): active; positive | mutagenic call (Test System: AMES SALMONELLA TYPHIMURIUM, Strain/Indicator: TA98, Metabolic Activation: RAT, LIVER, S-9, PHENOBARBITAL, Method: STANDARD PLATE): active; positive | mutagenic call (Test System: AMES SALMONELLA TYPHIMURIUM, Strain/Indicator: TA100, Metabolic Activation: MOUSE, LIVER, MICROSOMES, BENZO[E]PYRENE AND TCDD, Method: STANDARD PLATE): active; positive | mutagenic call (Test System: AMES SALMONELLA TYPHIMURIUM, Strain/Indicator: TA100, Metabolic Activation: NONE, Method: SPIRAL ASSAY): inactive; negative | mutagenic call (Test System: AMES SALMONELLA TYPHIMURIUM, Strain/Indicator: TA100, Metabolic Activation: RAT, LIVER, PARENCHYMAL CELLS (FRESHLY ISOLATED OR STORED FOR 1 D OR CRYOPRESERVED), Method: PREINCUBATION): active; positive | mutagenic call (Test System: AMES SALMONELLA TYPHIMURIUM, Strain/Indicator: TA100, Metabolic Activation: RAT, LIVER, S-9, AROCLOR 1254 (2%), Method: STANDARD PLATE): active; positive | mutagenic call (Test System: AMES SALMONELLA TYPHIMURIUM, Strain/Indicator: TA100, Metabolic Activation: RAT, LIVER, S-9, AROCLOR 1254, Method: SPIRAL ASSAY): active; positive | mutagenic call (Test System: AMES SALMONELLA TYPHIMURIUM, Strain/Indicator: TA100, Metabolic Activation: RAT, LIVER, S-9, AROCLOR 1254, Method: STANDARD PLATE): active; positive | mutagenic call (Test System: AMES SALMONELLA TYPHIMURIUM, Strain/Indicator: TA100, Metabolic Activation: RAT, LIVER, S-9, AROCLOR 1254 OR PHENOBARBITOL, Method: STANDARD PLATE): active; positive | mutagenic call (Test System: AMES SALMONELLA TYPHIMURIUM, Strain/Indicator: TA100, Metabolic Activation: RAT, LIVER, S-9, PHENOBARBITAL, Method: STANDARD PLATE): active; positive | mutagenic call (Test System: AMES SALMONELLA TYPHIMURIUM, Strain/Indicator: TA1535 (PSK1002), Metabolic Activation: RAT, LIVER, S-9, AROCLOR 1254, Method: PREINCUBATION): active; positive | mutagenic call (Test System: AMES SALMONELLA TYPHIMURIUM, Strain/Indicator: TA1535, Metabolic Activation: NONE, Method: SPIRAL ASSAY): inactive; negative | mutagenic call (Test System: AMES SALMONELLA TYPHIMURIUM, Strain/Indicator: TA1535, Metabolic Activation: RAT, LIVER, S-9, AROCLOR 1254 (2%), Method: STANDARD PLATE): inactive; negative | mutagenic call (Test System: AMES SALMONELLA TYPHIMURIUM, Strain/Indicator: TA1535, Metabolic Activation: RAT, LIVER, S-9, AROCLOR 1254, Method: SPIRAL ASSAY): active; positive | mutagenic call (Test System: AMES SALMONELLA TYPHIMURIUM, Strain/Indicator: TA1535, Metabolic Activation: RAT, LIVER, S-9, AROCLOR 1254, Method: STANDARD PLATE): active; positive | mutagenic call (Test System: AMES SALMONELLA TYPHIMURIUM, Strain/Indicator: TA1535, Metabolic Activation: RAT, LIVER, S-9, AROCLOR 1254 OR PHENOBARBITOL, Method: STANDARD PLATE): active; positive | mutagenic call (Test System: AMES SALMONELLA TYPHIMURIUM, Strain/Indicator: TA1535, Metabolic Activation: RAT, LIVER, S-9, PHENOBARBITAL, Method: STANDARD PLATE): active; positive | mutagenic call (Test System: AMES SALMONELLA TYPHIMURIUM, Strain/Indicator: TA1537, Metabolic Activation: NONE, Method: SPIRAL ASSAY): inactive; negative | mutagenic call (Test System: AMES SALMONELLA TYPHIMURIUM, Strain/Indicator: TA1537, Metabolic Activation: NONE, Method: STANDARD PLATE): inactive; negative | mutagenic call (Test System: AMES SALMONELLA TYPHIMURIUM, Strain/Indicator: TA1537, Metabolic Activation: RAT, LIVER, S-9, AROCLOR 1254 (2%), Method: STANDARD PLATE): active; positive | mutagenic call (Test System: AMES SALMONELLA TYPHIMURIUM, Strain/Indicator: TA1537, Metabolic Activation: RAT, LIVER, S-9, AROCLOR 1254, Method: SPIRAL ASSAY): active; positive | mutagenic call (Test System: AMES SALMONELLA TYPHIMURIUM, Strain/Indicator: TA1537, Metabolic Activation: RAT, LIVER, S-9, AROCLOR 1254, Method: STANDARD PLATE): active; positive | mutagenic call (Test System: AMES SALMONELLA TYPHIMURIUM, Strain/Indicator: TA1537, Metabolic Activation: RAT, LIVER, S-9, AROCLOR 1254 OR PHENOBARBITOL, Method: STANDARD PLATE): active; positive | mutagenic call (Test System: AMES SALMONELLA TYPHIMURIUM, Strain/Indicator: TA1538, Metabolic Activation: NONE, Method: STANDARD PLATE): inactive; negative | mutagenic call (Test System: AMES SALMONELLA TYPHIMURIUM, Strain/Indicator: TA1538, Metabolic Activation: RAT, LIVER, S-9, AROCLOR 1254, Method: STANDARD PLATE): active; positive | mutagenic call (Test System: AMES SALMONELLA TYPHIMURIUM, Strain/Indicator: TA1538, Metabolic Activation: RAT, LIVER, S-9, AROCLOR 1254 OR PHENOBARBITOL, Method: STANDARD PLATE): active; positive | mutagenic call (Test System: AMES SALMONELLA TYPHIMURIUM, Strain/Indicator: TA1538, Metabolic Activation: RAT, LIVER, S-9, PHENOBARBITAL, Method: STANDARD PLATE): active; positive | mutagenic call (Test System: AMES SALMONELLA TYPHIMURIUM, Strain/Indicator: YG1012, Metabolic Activation: RAT, LIVER, S-9, PHENOBARBITAL AND 5,6-BENZOFLAVONE, Method: PREINCUBATION): active; positive | mutagenic call (Test System: AMES SALMONELLA TYPHIMURIUM, Strain/Indicator: YG1019, Metabolic Activation: RAT, LIVER, S-9, PHENOBARBITAL AND 5,6-BENZOFLAVONE, Method: PREINCUBATION): active; positive | mutagenic call (Test System: AMES SALMONELLA TYPHIMURIUM, Strain/Indicator: YG1020, Metabolic Activation: RAT, LIVER, S-9, PHENOBARBITAL AND 5,6-BENZOFLAVONE, Method: PREINCUBATION): active; positive | mutagenic call (Test System: AMES SALMONELLA TYPHIMURIUM, Strain/Indicator: YG1024, Metabolic Activation: RAT, LIVER, S-9, PHENOBARBITAL AND 5,6-BENZOFLAVONE, Method: PREINCUBATION): active; positive | mutagenic call (Test System: AMES SALMONELLA TYPHIMURIUM, Strain/Indicator: YG1025, Metabolic Activation: RAT, LIVER, S-9, PHENOBARBITAL AND 5,6-BENZOFLAVONE, Method: PREINCUBATION): active; positive | mutagenic call (Test System: AMES SALMONELLA TYPHIMURIUM, Strain/Indicator: YG1029, Metabolic Activation: RAT, LIVER, S-9, PHENOBARBITAL AND 5,6-BENZOFLAVONE, Method: PREINCUBATION): active; positive | mutagenic call (Test System: Ames Salmonella typhimurium, Strain/Indicator: YG7108pin3ERb5, Metabolic Activation: None, Method: Standard plate): active; positive | mutagenic call (Test System: CHINESE HAMSTER OVARY, Strain/Indicator: CHO-K1-BH4 (HGPRT), Metabolic Activation: RAT, LIVER, S-9, AROCLOR, Method: SUSPENSION/PLATE): active; positive | mutagenic call (Test System: E. COLI, Strain/Indicator: WP2 UVRA, Metabolic Activation: NONE, Method: STANDARD PLATE): inactive; negative | mutagenic call (Test System: MOUSE LYMPHOMA, Strain/Indicator: L5178Y (TK+/TK-), Metabolic Activation: NONE, Method: SUSPENSION/PLATE): inactive; negative | mutagenic call (Test System: MOUSE LYMPHOMA, Strain/Indicator: L5178Y (TK+/TK-), Metabolic Activation: RAT, LIVER, S-9, AROCLOR 1254, Method: SUSPENSION/PLATE): active; positive
